Laboratory results published in US20100004222A1, “Amide Derivatives as Ion-Channel Ligands and Pharmaceutical Compositions and Methods of Using the Same” (Renovis, Inc., priority 2006, published 2010).
Entries after “also recorded” stand apart in the source; their conditions may differ.

How the values were obtained:
VR1 [1] = biological target: T1, VR1 (Homo sapiens, UniProt Q8NER1); test: Calcium uptake assay, capsaicin agonist (high throughput calcium imaging); type: cell-based; parameters: expressed in transfected cells; host or cells: T-REx HEK 293 (Invitrogen), pcDNA5/TO vector; details: 3 nM; FIGS. 2-6
Target sequence in this assay (Q8NER1 whole entry): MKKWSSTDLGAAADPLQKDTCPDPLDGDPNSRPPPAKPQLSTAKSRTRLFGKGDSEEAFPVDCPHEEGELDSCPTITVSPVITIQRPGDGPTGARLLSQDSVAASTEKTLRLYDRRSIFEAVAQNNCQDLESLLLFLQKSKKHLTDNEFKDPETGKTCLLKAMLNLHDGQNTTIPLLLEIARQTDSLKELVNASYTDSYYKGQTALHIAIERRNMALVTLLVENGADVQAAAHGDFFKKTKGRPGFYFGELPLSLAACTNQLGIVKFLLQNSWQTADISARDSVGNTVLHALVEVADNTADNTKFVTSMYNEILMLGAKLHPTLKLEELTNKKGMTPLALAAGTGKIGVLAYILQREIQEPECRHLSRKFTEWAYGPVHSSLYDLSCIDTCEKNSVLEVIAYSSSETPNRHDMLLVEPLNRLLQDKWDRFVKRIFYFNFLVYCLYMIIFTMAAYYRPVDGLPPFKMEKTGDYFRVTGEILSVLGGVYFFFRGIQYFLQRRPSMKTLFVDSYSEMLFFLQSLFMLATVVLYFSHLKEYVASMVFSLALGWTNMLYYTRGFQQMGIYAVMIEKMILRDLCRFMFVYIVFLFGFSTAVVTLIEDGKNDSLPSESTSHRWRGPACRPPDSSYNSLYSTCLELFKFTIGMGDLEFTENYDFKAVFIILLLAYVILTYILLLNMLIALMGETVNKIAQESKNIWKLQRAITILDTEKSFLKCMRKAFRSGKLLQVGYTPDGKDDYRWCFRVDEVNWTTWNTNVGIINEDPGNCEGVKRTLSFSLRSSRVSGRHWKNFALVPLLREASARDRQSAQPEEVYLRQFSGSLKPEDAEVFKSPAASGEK

[2] = Pharmacokinetic evaluation following intravenous and oral administration in rats; type: in vivo; details: male, Sprague-Dawley, plasma, rat; for bioavailability: AUCinf (PO)/AUCinf (IV), dose normalized, PO 5 mg/kg, read-out: Oral Bioavailability F (%); for clearance: non-compartmental analysis, read-out: In vivo Clearance (converted)
Procedure: Male Sprague-Dawley rats are acclimatized for at least 24 hours prior to experiment initiation. During acclimation period, all animals receive food and water ad libitum. However, food but not water is removed from the animal's cages at least 12 hours before initiation of the experiment. During the first 3 hours of experimentation, the animals receive only water ad libitum. At least three animal each are tested for intravenous and oral dosage. For intravenous formulation, compounds were dissolved (0.25 to 1 mg/mL) in a mixture of 3% dimethyl sulfoxide, 40% PEG 400 and the rest percentage of 40% Captisol in water (w/v). For oral formulation, compounds of this invention are dissolved (2 mg/mL) in a mixture of 5% of 10% Tween 80 in water (v/v) and 95% of 0.5% methyl cellulose in water (w/v). The animals are weighed before dosing. The determined body weight is used to calculate the dose volume for each animal.
Dose volume(mL/kg)=1 mg/kg/formulation concentration(mg/mL)
In instances where the formulation concentrations were less than 0.5 mg/mL, the dosing volume is about 2 mL/kg. PO rats are typically dosed through oral gavage at 2.5 mL/kg to achieve a dose level of 5 mg/kg. For IV dosing, blood samples are collected (using a pre-heparinized syringe) via the jugular vein catheter at 2, 5, 15, 30, 60, 120, 180, 300, 480, and 1440 minutes post dosing. For PO dosing, blood samples are collected (using a pre-heparinized syringe) via the jugular vein catheter before dosing and at 5, 15, 30, 60, 120, 180, 300, 480, and 1440 minutes post dosing. About 250 uL of blood is obtained at each time point from the animal. Equal volumes of 0.9% normal saline are replaced to prevent dehydration. The whole blood samples are maintained on ice until centrifugation. Blood samples are then centrifuged at 14,000 rpm for 10 minutes at 4° C. and the upper plasma layer transferred into a clean vial and stored at −80° C. The resulting plasma samples are then analyzed by liquid chromatography-tandem mass spectrometry. Following the measurement of plasma samples and dosing solutions, plasma concentration-time curve is plotted. Plasma exposure is calculated as the area under the concentration-time curve extrapolated to time infinite (AUCinf). The AUCinf is averaged and the oral bioavailability (% F) for individual animal is calculated as:
AUCinf (PO)/AUCinf (IV), normalized to their respective dose levels. The % F is reported as the mean % F of all animals dosed orally with the compound of the invention at the specified level (Table 6).
In vivo clearance in the rat was calculated by conducting a non-compartmental analysis of the pharmacokinetic profile using WinNonlin software.

VR1 receptor = test: Calcium imaging assay in DRG neurons (capsaicin); type: cell-based; details: 3 nM, FIG. 1
Procedure: Therefore the functional activity of compounds at the VR1 receptor may be determined by measuring changes in intracellular calcium levels in neurons such as the dorsal root ganglion. […] Prior to assay, cells were loaded with 5 μg/ml Fura2 in normal saline solution at 37° C. for 40 minutes. Cells were then washed with normal saline to remove dye before commencement of the experiment. The plated neurons were transferred into a chamber on the stage of a Nikon eclipse TE300 microscope after which neurons were allowed to attain a stable fluorescence for about 10 minutes before beginning the experiment. The assay consists of two stages, a pretreatment phase followed by a treatment phase. First, a solution of the test compound was added from a multivalve perfusion system to the cells for 1 minute (pretreatment). […] Fura2 was excited at […] to indicate relative calcium ion concentration. Changes in wavelength measurements were made throughout the course of the experiment. The fluorescence ratio was calculated by dividing fluorescence measured at 340 nm by that at 380 nM. Data were collected using Intelligent Imaging's Slidebook software.

[3] = tested on: Dorsal root ganglion (DRG) neurons; test: Whole-cell patch clamp electrophysiology; type: cell-based; details: Rattus norvegicus, DRG neuron, read-out: % inhibition of capsaicin induced current
Procedure: Dorsal root ganglion (DRG) neurons were recovered from either neonatal or adult rats and plated onto poly-D-lysine coated glass coverslips. The plated neurons were transferred into a chamber to allow drug solutions to be added to the cells using a computer-controlled solenoid-valve based perfusion system. The cells were imaged using standard DIC optics. Cells were patched using finely-pulled glass electrodes. Voltage-clamp electrophysiology experiments were carried out using an Axon Instruments Multiclamp amplified controlled by pCLAMP8 software.

[4] = Half-life in human liver microsomes (HLM); type: in vitro ADME; details: pH 7.4, 1 μM compound, 0.78 mg/mL HLM, 37° C.
Procedure: Test compounds (1 μM) are incubated with 3.3 mM MgCl2 and 0.78 mg/mL HLM (HL101) in 100 mM potassium phosphate buffer (pH 7.4) at 37° C. on the 96-deep well plate. The reaction mixture is split into two groups, a non-P450 and a P450 group. NADPH is only added to the reaction mixture of the P450 group. An aliquot of samples of P450 group is collected at 0, 10, 30, and 60 min time point, where 0 min time point indicated the time when NADPH is added into the reaction mixture of P450 group. An aliquot of samples of non-P450 group is collected at −10 and 65 min time point. Collected aliquots are extracted with acetonitrile solution containing an internal standard. The precipitated protein is spun down in centrifuge (2000 rpm, 15 min). The compound concentration in supernatant is measured by LC/MS/MS system.
The half-life value is obtained by plotting the natural logarithm of the peak area ratio of compounds/internal standard versus time. The slope of the line of best fit through the points yields the rate of metabolism (k). This is converted to a half-life value using following equations: […]

VR1 [5] = biological target: T1, VR1; test: Calcium uptake assay, low pH (proton) agonist; type: cell-based; parameters: expressed in transfected cells; host or cells: T-REx HEK 293 (Invitrogen), pcDNA5/TO vector; details: HEK293; 0.3 μM compound; low pH (protons) as agonist; HEK 293 cells expressing hVR1; read-out: Low pH % Inhib. @ 0.3 μM
Target sequence in this assay (Q8NER1 whole entry): as above

VR1 [6] = biological target: T1, VR1; test: Acid stimulation assay (FDSS 6000); type: cell-based; details: final assay buffer pH5.8, 15 min pre-incubation
Procedure: The Acid-induced changes in the intracellular calcium concentration were monitored using FDSS 6000 (Hamamatsu Photonics, Japan), a fluorometric imaging system. The cell suspension in resting buffer (HBSS supplemented with 10 mM HEPES, pH 7.4) was pre-incubated with varying concentrations of the test compounds or resting buffer (buffer control) for 15 minutes at room temperature under dark conditions. The cells were automatically added the stimulating solution (HBSS supplemented with MES, final assay buffer pH5.8) by the FDSS 6000.
Target sequence in this assay (Q8NER1 whole entry, species assumed): as the sequence (Q8NER1 whole entry) above

inhibition of the Capsaicin induced intracellular calcium response (VR1 [1])	bioavailability [2] [%]	clearance [2] [mL/min/kg]	half-life at 1 μM [4] [h]	inhibition at 0.3 µM (VR1 [5]) [%]	IC50 (VR1 [6]) [nM]	SMILES	inhibition of the Capsaicin induced intracellular calcium response (VR1 receptor)	inhibition at 0.1 µM [3] [%]
significant inhibition	–	–	–	–	–	O=C(Nc1cccc2cnccc12)c1ccc(C#CC(F)(F)F)cc1 [Compound 45]	–	–
significant inhibition	–	–	–	–	–	C/C(=C\C(F)(F)F)c1ccc(C(=O)Nc2ccc3c(c2)OCCN3)cc1 [Compound 96]	–	–
significant inhibition	–	–	–	–	–	Cc1cc(C#CC(C)(C)C)ccc1C(=O)Nc1ccc2c(c1)OCC(CO)N2 (centres unmarked) [Compound 167]	–	–
significant inhibition	43	1.83	–	–	–	Cc1cc(/C=C/C(F)(F)F)ccc1C(=O)Nc1cnc2ccccc2c1 [Compound 187, 2-Methyl-N-quinolin-3-yl-4-((E)-3,3,3-trifluoro-propenyl)-benzamide]	–	–
–	–	1.52	–	–	–	Cc1cc(/C=C/C(F)(F)F)ccc1C(=O)Nc1ccc2sc(CO)nc2c1 [Compound 225]	reduced; also recorded: significant inhibition	–
significant inhibition	54	33.3	–	–	–	Cc1cc(/C=C/C(F)(F)F)ccc1C(=O)Nc1cnc2c(c1)OCC(CO)N2 (centres unmarked) [Compound 233]	–	–
–	–	–	–	–	–	COc1cc(NC(=O)c2ccc(/C=C/C(C)C)cc2)cc(C(F)(F)F)c1 [Compound 240]	–	50
–	59	1.33	2.96	104	3	Cc1cc(/C=C/C(F)(F)F)ccc1C(=O)Nc1cnc2cccnc2c1 [Compound 318, (E)-2-methyl-N-(1,5-naphthyridin-3-yl)-4-(3,3,3-trifluoroprop-1-enyl)benzamide]	–	–
–	11	7.17	0.81	105	20	Cc1nc2cc(NC(=O)c3ccc(/C=C/C(F)(F)F)cc3C)cnc2s1 [Compound 412, (E)-2-methyl-N-(2-methylthiazolo[5,4-b]pyridin-6-yl)-4-(3,3,3-trifluoroprop-1-enyl)benzamide]	–	–
–	> 100	3.83	3.22	110	4	Cc1cc(/C=C/C(F)(F)F)ccc1C(=O)Nc1cnc2sc(CO)nc2c1 [Compound 413, (E)-N-(2-(hydroxymethyl)thiazolo[5,4-b]pyridin-6-yl)-2-methyl-4-(3,3,3-trifluoroprop-1-enyl)benzamide]	–	–
–	45	0.833	4.82	130	8	Cc1cc(/C=C/C(F)(F)F)ccc1C(=O)Nc1cnc2scnc2c1 [Compound 415, (E)-2-methyl-N-(thiazolo[5,4-b]pyridin-6-yl)-4-(3,3,3-trifluoroprop-1-enyl)benzamide]	–	–
